In US20100206318A1, “FILTER FOR A TOBACCO PRODUCT” (BIOHIT OYJ, priority 2007, published 2010):

Test: acetaldehyde in saliva of testees during smoking through cigarette holder with filter (headspace gas chromatography)
Format: in vivo, human
Details: FIG. 1
Description: The entire filter of Marlboro Red was removed or, in some tests, 2-3 mm of the original filter was left in the cigarette.
In the tests, ready commercial cigarette holders/mouthpieces of Denicotea, www.denicotea.de were used. In the cigarette holders/mouthpieces, plastic cylinder-shaped “containers” were used, the filtering material being packed in the containers. The original content (intended for the removal of nicotine) of the containers was removed and replaced with the material that was used in the study. The outer dimensions of the container were: diameter 8 mm and length 35 mm.
Cellulose wadding (c. 100 mg), filter paper (Whattman), Commercial filters: Smart (the importer: Altadia Finland Oy) and Ventti (Philip Morris Finland Oy),
Cysteine was dissolved in distilled water, 30-180 mg of L-Cysteine/1 ml. The manufacturer: Fluka, 30089.
The filter material that had been packed in plastic cylinders was moistened with a water-cysteine solution (50-250 μl), and the filter container thus made was placed in the Denicotea cigarette holder. After this, the testees smoked the cigarettes that had been placed in the mouthpieces. During smoking, saliva samples were collected from those participating in the tests and the acetaldehyde in the saliva was analyzed by gas chromatography, Perkin-Elmer, HS40, headspace Gas Chromatograph.

N[C@@H](CS)C(=O)O [cysteine, L-Cysteine]
filterability, dependence on amount: dependent on the amount of cysteine
